Experimental data published in patent US20240108612A1, “PHARMACEUTICAL COMPOSITION FOR ENHANCING ANTICANCER EFFECT OF PROTAC, INCLUDING IU1-SERIES UBIQUITIN-SPECIFIC PROTEASE 14 INHIBITOR AS ACTIVE INGREDIENT” (DAEGU GYEONGBUK INSTITUTE OF SCIENCE AND TECHNOLOGY, priority 2021, published 2024).
Peptide text beside a SMILES is read from it. * marks the point of attachment. Cbz = O=C(OCc1ccccc1)*

Assays:
BRD4 protein = biological target: T1, BRD4 protein (Homo sapiens, UniProt O60885); assay: BRD4 protein degradation by Western blotting; format: cell-based; conditions: 50 μM IU1 with BRD4 PROTAC; 1% SDS lysis buffer or RIPA buffer; FIG. 11
T1 construct: endogenous in cells
Procedure: (§1) To prepare samples for Western blotting, HeLa and LNCaP cells were washed once with ice-cold PBS (1×) and lysed using RIPA buffer (ROCKLAND, MB-030-050) supplemented with protease inhibitor cocktail (Roche), 1 mM PMSF, and 1 mM DTT, or 1% SDS lysis buffer [1% (w/v) SDS, 10 mM Tris-HCl, 1 mM EDTA, pH 8.0]. All lysates were quantified by BCA protein assay (Thermo Fisher Scientific), and then 15 to 30 μg of each lysate was run by SDS-PAGE. Afterwards, the experiment was performed in the following order: transfer to PVDF membrane, treatment with a blocking solution (5% BSA or 5% non-fat dry milk in 1× TBST), treatment with designated primary antibody, and treatment with HRP-linked secondary antibody. Between treatments, washing was performed several times with excess 1× TBST. Each membrane was image-analyzed and quantified for protein signals using ChemiDoc (iBright750, Invitrogen).
In order to determine whether the USP14 inhibitor of the present disclosure can enhance protein degradation capability for PROTACs other than CDK9 PROTACs, which were confirmed through experiments in Examples 2 and 4, it was confirmed whether the effect of degradation of BRD4 protein by BRD4 PROTAC was enhanced by IU1 treatment. […]

SHP-2 protein = biological target: T2, SHP-2 protein (Homo sapiens, UniProt Q06124); assay: SHP-2 protein degradation by Western blotting in HeLa cells; format: cell-based; conditions: IU1 in combination with SHP-2 PROTAC, FIGS. 12A, 12B
T2 construct: endogenous in cells; host or cells: HeLa (ATCC)
T2 sequence (Q06124 1-593): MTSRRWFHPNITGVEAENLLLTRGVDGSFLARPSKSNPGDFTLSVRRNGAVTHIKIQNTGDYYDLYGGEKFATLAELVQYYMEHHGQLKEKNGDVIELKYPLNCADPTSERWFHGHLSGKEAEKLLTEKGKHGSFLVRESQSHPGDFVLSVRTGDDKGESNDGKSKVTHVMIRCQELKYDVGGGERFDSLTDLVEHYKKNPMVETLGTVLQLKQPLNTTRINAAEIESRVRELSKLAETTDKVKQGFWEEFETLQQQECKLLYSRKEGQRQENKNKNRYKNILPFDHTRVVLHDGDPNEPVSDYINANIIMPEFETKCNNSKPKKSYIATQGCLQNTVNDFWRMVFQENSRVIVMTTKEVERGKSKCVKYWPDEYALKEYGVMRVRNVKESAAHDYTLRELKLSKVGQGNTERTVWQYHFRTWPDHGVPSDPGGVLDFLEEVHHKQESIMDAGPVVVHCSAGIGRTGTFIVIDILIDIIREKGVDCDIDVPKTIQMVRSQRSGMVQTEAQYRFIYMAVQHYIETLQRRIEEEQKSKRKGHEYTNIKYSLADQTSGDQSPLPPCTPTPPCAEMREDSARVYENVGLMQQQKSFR
Procedure: as §1
In addition, for SHP-2 PROTAC, which is another VHL-based PROTAC other than BRD4 PROTAC, it was confirmed whether the degradation effect for SHP-2 protein was enhanced under experimental conditions similar to those in the experiment in FIG. 7.

HeLa cells [1] = conditions: FIG. 8
Procedure: To measure cell viability by treatment with the compound of the present disclosure, HeLa and LNCaP cells were seeded in a 96-well plate (SPL, #33396) at 500 cells/well (HeLa) or 3000 cells/well (LNCaP). The cells were seeded and cultured in an incubator at 37° C. and 5% CO2. Twenty four hours later, the medium was replaced with compound-containing medium and incubated under the same conditions in an incubator for 48 hours. Afterwards, cell viability was measured through luminescence analysis in an Envision microplate reader (Perkin Elmer) using the ATP-lite 1 step assay kit (Perkin Elmer).
The results measured in the experiments to confirm cell viability were initially processed using Excel, and then the IC50 values were derived through nonlinear regression analysis using Prism software.

CDK9 protein [2] = biological target: T3, CDK9 protein (Homo sapiens, UniProt P50750); assay: CDK9 protein degradation by Western blotting in LNCaP cells; format: cell-based; set-up: endogenous in cells
Procedure: HeLa cells (cervical cancer cells) and LNCaP cells (prostate cancer cells) that were used for the experiments of the present disclosure were obtained from the American Type Culture Collection (ATCC), and were cultured in Dulbecco's Modified Eagle's Medium (DMEM, 1×) or RPMI-1640 (1×) medium, each containing 10% FBS, 1% penicillin/streptomycin and 1% L-glutamine, in a 37° C., 5% CO2 cell incubator. For experiments with PROTAC and deubiquitinase (DUB) inhibitors such as IU1 and IU1-47, 5×10^5 (HeLa) or 1×10^6 (LNCaP) cells were seeded into each well of a 12-well plate (Corning, #3513) one day before inhibitor treatment and then cultured in an incubator. […]
To prepare samples for Western blotting, HeLa and LNCaP cells were washed once with ice-cold PBS (1×) and lysed using RIPA buffer (ROCKLAND, MB-030-050) supplemented with protease inhibitor cocktail (Roche), 1 mM PMSF, and 1 mM DTT, or 1% SDS lysis buffer [1% (w/v) SDS, 10 mM Tris-HCl, 1 mM EDTA, pH 8.0]. All lysates were quantified by BCA protein assay (Thermo Fisher Scientific), and then 15 to 30 μg of each lysate was run by SDS-PAGE. […] Each membrane was image-analyzed and quantified for protein signals using ChemiDoc (iBright750, Invitrogen).
Data obtained through Western blotting were quantified using iBright analysis software, and the levels of all target proteins were normalized with GAPDH. […]

CDK9 protein [3] = biological target: T3, CDK9 protein; assay: CDK9 protein degradation by Western blotting in HeLa cells; format: cell-based; set-up: endogenous in cells; host or cells: HeLa (ATCC); conditions: for Enhancement of degradation effect of CDK9 PROTAC, comparison with PR-619: PR-619 at different concentrations, FIG. 16; for CDK9 protein level when inhibitor is treated together with PROTAC and IU1: proteasome or autophagy inhibitor added to CDK9 PROTAC and IU1, FIG. 4C
Procedure: HeLa cells (cervical cancer cells) and LNCaP cells (prostate cancer cells) that were used for the experiments of the present disclosure were obtained from the American Type Culture Collection (ATCC), and were cultured in Dulbecco's Modified Eagle's Medium (DMEM, 1×) or RPMI-1640 (1×) medium, each containing 10% FBS, 1% penicillin/streptomycin and 1% L-glutamine, in a 37° C., 5% CO2 cell incubator. For experiments with PROTAC and deubiquitinase (DUB) inhibitors such as IU1 and IU1-47, 5×10^5 (HeLa) or 1×10^6 (LNCaP) cells were seeded into each well of a 12-well plate (Corning, #3513) one day before inhibitor treatment and then cultured in an incubator. Twenty-four hours after incubation, each well was replaced with medium containing serial dilutions of the compound and incubated under the same conditions for no more than 24 hours. As for all controls, the same amount of DMSO, which is a vehicle, was used for that of the compound treated with the experimental groups.
as §1
Data obtained through Western blotting were quantified using iBright analysis software, and the levels of all target proteins were normalized with GAPDH. After quantification and normalization, DC50 values of the compounds used in the experiments of the present disclosure were derived through nonlinear regression using Graph Pad Prism software.

HeLa cells [4] = assay: Cancer cell migration assay in HeLa cells; format: cell-based; conditions: CDK9 PROTAC 40 nM and IU1-47 20 μM in combination; every 12 hours; FIG. 18
Procedure: Microscopic images were taken using an inverted fluorescence microscope (Olympus) through a 10× magnification lens every 12 hours, and the width of the intercellular region was measured using ImageJ software.
To this end, HeLa cells were treated with CDK9 PROTAC (40 nM) and IU1-47 (20 μM) compounds separately or in combination, and the migration of HeLa cells was confirmed every 12 hours.

HeLa cells [5] = assay: Cancer cell colony formation assay in HeLa cells; format: cell-based; conditions: CDK9 PROTAC 10-100 nM and IU1-47 20 μM in combination; one week; FIG. 19
Procedure: Afterwards, the medium was replaced with a compound-containing medium, and then the cells were further cultured in the incubator under the same conditions for one week. The cultured cancer cells at the end were stained with 0.25% crystal violet staining solution containing 20% methanol for 1 hour, and then washed with ultrapure distilled water and dried at room temperature for one day. Cell images were captured using a camera or iBright CL750 (Thermo Fisher), the number of colonies was analyzed using iBright analysis software, and the size of colonies was analyzed using ImageJ software.
As another example to confirm the anticancer effect by the degradation of CDK9 protein enhanced by the combined treatment of the IU1-series compound and CDK9 PROTAC, which was confirmed in Examples as described above, different concentrations of CDK9 PROTAC (10, 25 , 50, 75, 100 nM) and IU1-47 (20 μM) compounds were used separately or in combination for treatment, and one week later, the degree of colony formation of HeLa cancer cells by the effect of enhancing CDK9 PROTAC protein degradation capability by IU1-series compound, was confirmed.

T3 sequence (P50750 whole entry): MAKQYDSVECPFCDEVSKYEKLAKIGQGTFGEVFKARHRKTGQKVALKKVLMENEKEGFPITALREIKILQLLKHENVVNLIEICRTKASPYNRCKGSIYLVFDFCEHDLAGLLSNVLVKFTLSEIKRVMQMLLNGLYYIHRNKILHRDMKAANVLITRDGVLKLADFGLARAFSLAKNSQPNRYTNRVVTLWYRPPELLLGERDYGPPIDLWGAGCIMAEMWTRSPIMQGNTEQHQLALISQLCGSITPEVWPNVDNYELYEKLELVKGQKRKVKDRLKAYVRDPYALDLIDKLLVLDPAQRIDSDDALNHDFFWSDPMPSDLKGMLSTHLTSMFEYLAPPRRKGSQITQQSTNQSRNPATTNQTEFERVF
T3 sequence (O60563 whole entry partner): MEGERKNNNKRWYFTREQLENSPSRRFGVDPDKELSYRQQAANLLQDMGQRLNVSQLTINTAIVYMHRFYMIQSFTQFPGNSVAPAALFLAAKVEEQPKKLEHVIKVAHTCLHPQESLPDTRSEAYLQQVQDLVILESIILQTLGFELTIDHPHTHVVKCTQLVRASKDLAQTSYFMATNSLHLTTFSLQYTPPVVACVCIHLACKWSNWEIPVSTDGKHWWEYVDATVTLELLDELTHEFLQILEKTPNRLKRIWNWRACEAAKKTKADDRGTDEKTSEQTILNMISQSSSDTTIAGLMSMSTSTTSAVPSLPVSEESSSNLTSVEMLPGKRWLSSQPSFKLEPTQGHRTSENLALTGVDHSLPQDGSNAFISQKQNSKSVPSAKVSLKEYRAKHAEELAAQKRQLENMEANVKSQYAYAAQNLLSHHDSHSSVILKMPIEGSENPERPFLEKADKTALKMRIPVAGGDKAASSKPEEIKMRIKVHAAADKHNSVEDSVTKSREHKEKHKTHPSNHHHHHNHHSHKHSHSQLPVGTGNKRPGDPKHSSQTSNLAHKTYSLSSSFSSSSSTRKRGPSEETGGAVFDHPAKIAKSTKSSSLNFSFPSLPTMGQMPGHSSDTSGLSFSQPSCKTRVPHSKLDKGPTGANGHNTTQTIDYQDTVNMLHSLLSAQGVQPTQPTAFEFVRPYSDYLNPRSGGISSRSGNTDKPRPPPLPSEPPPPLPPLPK

Compound: Cc1cc(C(=O)CN2CCCC2)c(C)n1-c1ccc(F)cc1 [IU1, 1-[1-(4-fluorophenyl)-2,5-dimethylpyrrol-3-yl]-2-pyrrolidin-1-ylethanone]
- Enhancement of BRD4 protein degradation effect of BRD4 PROTAC (BRD4 protein): concentration-dependent enhancement of the BRD4 protein degradation effect
- Enhancement of SHP-2 protein degradation by SHP-2 PROTAC (SHP-2 protein): SHP-2 PROTAC concentration-dependent enhancement of SHP-2 protein degradation
- Anticancer effect of CDK9 PROTAC (IC50, cell growth inhibition) with IU1 in combination (HeLa cells [1]): significantly increased
- Enhancement of CDK9 degradation effect by CDK9 PROTAC, IU1 concentration fixed (CDK9 protein [2]; IU1 10, 25, 75, 100 μM (all concentrations), CDK9 PROTAC 1-50 nM, FIGS. 10A, 10B): enhanced the CDK9 degradation effect by CDK9 PROTAC in a PROTAC concentration-dependent manner
- Degradation effect for CDK9 protein, combination versus CDK9 PROTAC alone (CDK9 protein [2]; IU1 and CDK9 PROTAC in combination, FIG. 9): significantly increased
- Enhancement of protein degradation capability of CDK9 PROTAC through the DC50 value, versus vehicle control (CDK9 protein [3]; HeLa, 75 μM of IU1 in combination): about 5 times
- Time-dependent effect on degradation effect of CDK9 PROTAC (CDK9 protein [3]; HeLa, CDK9 PROTAC 100 nM, IU1 50 μM, 0, 1, 3, 6, 12, 24 h, FIG. 15): accelerated the degradation effect of PROTAC
- Enhancement of CDK9 protein degradation capability by CDK9 PROTAC versus vehicle control (CDK9 protein [3]; HeLa, CDK9 PROTAC 0.1-250 nM, especially high concentration of IU1, FIGS. 7A, 7B): highly enhanced the CDK9 protein degradation capability
- Enhancement of protein degradation effect, CDK9 PROTAC concentration fixed (CDK9 protein [3]; HeLa, CDK9 PROTAC 5, 10, 20, 25 nM, IU1 10-100 μM, FIGS. 6A, 6B): the protein degradation effect was enhanced in an IU1 concentration-dependent manner at all concentrations
- CDK9 protein degradation effect of CDK9 PROTAC on combined treatment (CDK9 protein [3]; HeLa, IU1 50 μM with CDK9 PROTAC 1, 10, 25, 50, 100 nM, FIG. 4A): substantially increased
- Enhancement of CDK9 degradation effect by CDK9 PROTAC, IU1 concentration fixed (CDK9 protein [3]; HeLa, IU1 10, 25, 75, 100 μM, CDK9 PROTAC 1-100 nM, FIGS. 5A, 5B): enhanced the CDK9 degradation effect by CDK9 PROTAC in a PROTAC concentration-dependent manner at all concentrations except for the IU1 concentration at 10 μM
- CDK9 protein degradation on treatment with IU1 alone (CDK9 protein [3]; HeLa, maximum IU1 treatment concentration 50 μM, FIG. 4B): degradation of CDK9 protein did not occur

Compound: Cc1cc(C(=O)CN2CCCCC2)c(C)n1-c1ccc(Cl)cc1 [IU1-47, 1-[1-(4-chlorophenyl)-2,5-dimethyl-1H-pyrrol-3-yl]-2-(1-piperidinyl)ethanone]
- Migration or wound healing effect of HeLa cells, combination versus either alone (HeLa cells [4]): significantly inhibited
- Colony formation of HeLa cancer cells, combination versus either alone (HeLa cells [5]): significantly inhibited
- Enhancement of protein degradation of PROTAC from DC50 values, versus CDK9 PROTAC alone (CDK9 protein [3]; HeLa, 20 μM IU1-47 in combination with CDK9 PROTAC, FIG. 13C): about 6 times
- Enhancement of degradation of PROTAC, CDK9 PROTAC concentration fixed (CDK9 protein [3]; HeLa, CDK9 PROTAC 5, 10, 20 nM, varying IU1-47, FIG. 14): significantly enhanced the degradation of PROTAC in a concentration-dependent manner
- CDK9 degradation on treatment with IU1-47 alone (CDK9 protein [3]; HeLa, FIG. 14): did not result in any degradation of CDK9
- Enhancement of protein degradation capability of CDK9 PROTAC versus vehicle (CDK9 protein [3]; HeLa, IU1-47 10 μM, 20 µM, 30 μM, CDK9 PROTAC 0.1-250 nM, FIGS. 13A, 13B): significantly enhanced at all concentrations of IU1-47
- Enhancement of degradation effect of CDK9 PROTAC, comparison with P50429 (CDK9 protein [3]; HeLa, IU1-47 20 μM, FIG. 17): significantly enhanced the degradation effect of PROTAC
- Enhancement of degradation effect of CDK9 PROTAC, comparison with PR-619 (CDK9 protein [3]; HeLa): significantly enhanced the degradation effect of PROTAC
- Targeted protein degradation capability of PROTAC, IU1-47 compared with IU1 (CDK9 protein [3]; in combination with PROTAC, see Example 6): more increased compared to when IU1 was treated in combination with PROTAC

Compound: CC(C)C[C@@H](C=O)NC(=O)[C@H](CC(C)C)NC(=O)[C@H](CC(C)C)NC(=O)OCc1ccccc1 [MG132, reference compound] (Cbz-Leu-Leu-Leu-aldehyde)
- CDK9 protein level when inhibitor is treated together with PROTAC and IU1 (CDK9 protein [3]): the level of CDK9 protein was recovered similar to the control group

Compound: CS(=O)(=O)c1ccc(NC(=O)c2cc(C#N)c(Sc3c(Cl)cncc3Cl)s2)cc1 [P50429, reference compound]
- Enhancement of degradation effect of CDK9 PROTAC (CDK9 protein [3]; HeLa, P50429 1 μM and 10 μM with CDK9 PROTAC, FIG. 17): did not enhance the degradation effect of PROTAC

Compound: N#CSc1cc(SC#N)c(N)nc1N [PR-619, reference compound]
- Enhancement of degradation effect of CDK9 PROTAC, comparison with PR-619 (CDK9 protein [3]; HeLa): did not show the effect of enhancing the protein degradation of PROTAC at all treatment concentrations

Compound: CO/C1=C\C(C)=C\[C@@H](C)[C@@H](O)[C@@H](C)C/C(C)=C/C=C/[C@H](OC)[C@@H]([C@@H](C)[C@@H](O)[C@H](C)[C@@]2(O)C[C@@H](O)[C@H](C)[C@@H](C(C)C)O2)OC1=O [bafilomycin A1, reference compound]
- CDK9 protein level when inhibitor is treated together with PROTAC and IU1 (CDK9 protein [3]): the degradation of CDK9 protein by the treatment with PROTAC and IU1 was still observed
